Columns and labels:
Type in all cases: in vivo
[1] = tested on: common cutworm (Spodoptera Litura); assay: Insecticidal effect on common cutworm (Test Example 2); details: common cutworm second-instar larvae; cabbage leaf immersed, 500 ppm; eight days after inoculation; 25° C.
How it was run: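 Mortality was scored 8 days post-inoculation, using three groups of 10 second-instar larvae kept at 25 °C in closed 9 cm dishes on air-dried treated material. The insecticidal effect was graded from calculated mortality by a set criterion.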

[2] = tested on: rice leafroller (Cnaphalocrocis medinalis); assay: Insecticidal effect on rice leafroller (Test Example 3); details: rice leafroller third-instar larvae; rice lamina immersed, 500 ppm; four days after inoculation; 25° C., humidity 70%
How it was run: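 Groups of 10 third-instar larvae, in triplicate, are placed on air-dried lamina resting on wet filter paper. Incubation runs four days at 25° C with 70% humidity before survivors and dead are tallied.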

[3] = tested on: diamondback moth (Plutella xylostella); assay: Insecticidal effect on diamondback moth (Test Example 1); details: diamondback moth; mortality judged by criterion of Test Example 1
How it was run: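 Eggs laid by adult moths on Chinese cabbage seedlings, which were immersed in test solution, air-dried and kept at 25 °C. Hatched insects counted 6 days after immersion and mortality calculated, with effect graded by criterion; triplicate groups of 10 insects.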

Row | Structure (SMILES) | Insecticidal effect, Test Example 2 [1] | Insecticidal effect, Test Example 3 [2] | Insecticidal effect, Test Example 1 [3]
1 | CC(C)NC(=O)c1c(Cl)cccc1C(=O)Nc1ccc(SC(F)(F)F)cc1 [compound 997] | A (100) | A (100) | A (100)
2 | CC(C)NC(=O)c1c(I)cccc1C(=O)Nc1ccc(SC(F)(F)F)cc1 [compound 998] | A (100) | A (100) | A (100)
3 | CC(C)NC(=O)c1c(C(=O)Nc2ccc([S+]([O-])C(F)(F)F)cc2)cccc1[N+](=O)[O-] (stereo not drawn) [compound 1000] | D (79-50) | A (100) | A (100)
4 | CC(C)NC(=O)c1c(Cl)cccc1C(=O)Nc1ccc([S+]([O-])C(F)(F)F)cc1 (stereo not drawn) [compound 1001] | A (100) | A (100) | A (100)
5 | CC(C)NC(=O)c1c(I)cccc1C(=O)Nc1ccc([S+]([O-])C(F)(F)F)cc1 (stereo not drawn) [compound 1002] | A (100) | A (100) | A (100)
6 | CC(C)NC(=O)c1c(I)cccc1C(=O)Nc1ccc2c(c1)OC(F)(F)C(F)(F)O2 [compound 1003] | A (100) | A (100) | A (100)
7 | CC(C)NC(=O)c1c(I)cccc1C(=O)Nc1ccc(C(O)(C(F)(F)F)C(F)(F)F)cc1 [compound 1004] | A (100) | A (100) | A (100)
8 | Cc1cc(C(F)(F)C(F)(F)F)ccc1NC(=O)c1cccc(I)c1C(=O)NCC(C)C [compound 1005] | A (100) | A (100) | A (100)
9 | CCC(C)NC(=O)c1c(I)cccc1C(=O)Nc1ccc(C(F)(F)C(F)(F)F)cc1C (stereo not drawn) [compound 1007] | A (100) | A (100) | A (100)
10 | CCCC(C)NC(=O)c1c(I)cccc1C(=O)Nc1ccc(C(F)(F)C(F)(F)F)cc1C (stereo not drawn) [compound 1009] | A (100) | A (100) | A (100)
11 | CCC(CC)NC(=O)c1c(I)cccc1C(=O)Nc1ccc(C(F)(F)C(F)(F)F)cc1C [compound 1011] | A (100) | A (100) | A (100)
12 | CCC(COC)NC(=O)c1c(I)cccc1C(=O)Nc1ccc(C(F)(F)C(F)(F)F)cc1C (stereo not drawn) [compound 1013] | A (100) | A (100) | A (100)
13 | Cc1cc(C(F)(F)C(F)(F)F)ccc1NC(=O)c1cccc(I)c1C(=O)NCCC(C)C [compound 1015] | D (79-50) | A (100) | A (100)
14 | CCc1cc(C(F)(F)C(F)(F)F)ccc1NC(=O)c1cccc(I)c1C(=O)NC(C)C [compound 1017] | A (100) | A (100) | A (100)
15 | Cc1cc(OC(F)F)ccc1NC(=O)c1ccccc1C(=O)NC(C)(C)C [compound 1018] | D (79-50) | A (100) | A (100)
16 | Cc1cc(OC(F)F)ccc1NC(=O)c1cccc(Cl)c1C(=O)NC(C)(C)C [compound 1019] | A (100) | A (100) | A (100)
17 | Cc1cc(OC(F)F)ccc1NC(=O)c1cccc(I)c1C(=O)NC(C)(C)C [compound 1020] | A (100) | A (100) | A (100)
18 | CC(C)(C)NC(=O)c1c(Cl)cccc1C(=O)Nc1ccc(OC(F)(F)F)cc1Cl [compound 1022] | A (100) | A (100) | A (100)
19 | CC(C)(C)NC(=O)c1c(I)cccc1C(=O)Nc1ccc(OC(F)(F)F)cc1Cl [compound 1023] | A (100) | A (100) | A (100)
20 | Cc1cc(C(F)(F)C(F)(F)F)ccc1NC(=O)c1cccc(I)c1C(=O)NC1CC1 [compound 1024] | A (100) | A (100) | A (100)

Row | Structure (SMILES) | Insecticidal effect, Test Example 2 [1] | Insecticidal effect, Test Example 3 [2] | Insecticidal effect, Test Example 1 [3]
21 | Cc1cc(C(F)(F)C(F)(F)F)ccc1NC(=O)c1cccc(I)c1C(=O)NCC1CCCCC1 [compound 1028] | A (100) | A (100) | A (100)
22 | COCC(C)NC(=O)c1c(I)cccc1C(=O)Nc1ccc(C(F)(F)C(F)(F)F)cc1C (stereo not drawn) [compound 1031] | A (100) | A (100) | A (100)
23 | Cc1cc(C(F)(F)C(F)(F)F)ccc1NC(=O)c1cccc(I)c1C(=O)NC(C)C(C)C (stereo not drawn) [compound 1033] | A (100) | A (100) | A (100)
24 | CCN(CC)C(=O)c1c(I)cccc1C(=O)Nc1ccc(C(F)(F)C(F)(F)F)cc1C [compound 1035] | A (100) | A (100) | A (100)
25 | Cc1cc(C(F)(C(F)(F)F)C(F)(F)F)ccc1NC(=O)c1ccccc1C(=O)NC(C)(C)C [compound 1037] | A (100) | A (100) | A (100)
26 | Cc1cc(C(F)(C(F)(F)F)C(F)(F)F)ccc1NC(=O)c1cccc(Cl)c1C(=O)NC(C)(C)C [compound 1038] | A (100) | A (100) | A (100)
27 | Cc1cc(C(F)(C(F)(F)F)C(F)(F)F)ccc1NC(=O)c1cccc(I)c1C(=O)NC(C)(C)C [compound 1039] | A (100) | A (100) | A (100)
28 | Cc1cc(C(F)(F)C(F)(F)F)ccc1NC(=O)c1cccc(I)c1C(=O)NCC(F)(F)F [compound 1040] | A (100) | A (100) | A (100)
29 | Cc1cc(C(F)(F)C(F)(F)F)ccc1NC(=O)c1c(I)cccc1C(=O)NCC(F)(F)F [compound 1041] | A (100) | A (100) | A (100)
30 | Cc1cc(C(F)(F)C(F)(F)F)ccc1NC(=O)c1cccc(I)c1C(=O)N(C)C(C)C [compound 1042] | A (100) | A (100) | A (100)
31 | CCCN(CCC)C(=O)c1c(I)cccc1C(=O)Nc1ccc(C(F)(F)C(F)(F)F)cc1C [compound 1044] | A (100) | A (100) | A (100)
32 | C=CCN(CC=C)C(=O)c1c(I)cccc1C(=O)Nc1ccc(C(F)(F)C(F)(F)F)cc1C [compound 1045] | A (100) | A (100) | A (100)
33 | CCOCCN(CCOCC)C(=O)c1c(I)cccc1C(=O)Nc1ccc(C(F)(F)C(F)(F)F)cc1C [compound 1046] | A (100) | A (100) | A (100)
34 | Cc1cc(OC(F)(F)Br)ccc1NC(=O)c1ccccc1C(=O)NC(C)(C)C [compound 1049] | A (100) | A (100) | A (100)
35 | Cc1cc(OC(F)(F)Br)ccc1NC(=O)c1cccc(Cl)c1C(=O)NC(C)(C)C [compound 1050] | A (100) | A (100) | A (100)
36 | Cc1cc(OC(F)(F)Br)ccc1NC(=O)c1cccc(I)c1C(=O)NC(C)(C)C [compound 1051] | A (100) | A (100) | A (100)
37 | CC(C)(C)NC(=O)c1c(Cl)cccc1C(=O)Nc1ccc(C(O)(C(F)(F)F)C(F)(F)F)cc1 [compound 1053] | A (100) | A (100) | A (100)
38 | CC(C)(C)NC(=O)c1c(I)cccc1C(=O)Nc1ccc(C(O)(C(F)(F)F)C(F)(F)F)cc1 [compound 1054] | A (100) | A (100) | A (100)
39 | CC(C)NC(=O)c1c(I)cccc1C(=O)Nc1ccc(F)cc1F [compound 1055] | A (100) | A (100) | A (100)
40 | CCNC(=O)c1c(I)cccc1C(=O)Nc1ccc(OC(F)(F)C(F)F)cc1C [compound 1056] | A (100) | A (100) | A (100)

— patent US6362369B1, “Phthalic acid diamide derivatives fluorine-containing aniline compounds as starting material, agricultural and horticultural insecticides, and a method for application of the insecticides” (Nihon Nohyaku Co., Ltd., priority 1997, dated 2002)
